Values after ≈ are worked out from the molar mass of the structure shown. Where two headings read alike, the source gives them in different places.
How the values were obtained:
Format in all cases: cell-based
[1] = tested on: Staphylococcus aureus Ap01; assay: MIC, serial dilution on Mueller Hinton agar
Escherichia coli K-12 R5 = assay: MIC, serial dilution on Mueller Hinton agar; conditions: K12R5, 18 h
Serratia marcescens = assay: MIC, serial dilution on Mueller Hinton agar
[2] = tested on: Pseudomonas aeruginosa A3; assay: MIC, serial dilution on Mueller Hinton agar
[3] = tested on: Corynebacterium bovis 1810; assay: MIC, serial dilution on Mueller Hinton agar
[4] = tested on: Escherichia coli K-12 LA 290 R55; assay: MIC, serial dilution on Mueller Hinton agar; conditions: for MIC: Escherichia coli, K12LA290R55, 18 h
[5] = tested on: Escherichia coli K-12 ML 1629; assay: MIC, serial dilution on Mueller Hinton agar; conditions: K12ML1629, Escherichia coli K-12 ML 1629, resistance mechanism APH(3')-I, 37°C, 18 hours
[6] = tested on: Pseudomonas aeruginosa GN 315; assay: MIC, serial dilution on Mueller Hinton agar
[7] = tested on: Staphylococcus aureus 209P; assay: MIC, serial dilution on Mueller Hinton agar
[8] = tested on: Klebsiella pneumoniae 22#3038; assay: MIC, serial dilution on Mueller Hinton agar; conditions: Klebsiella pneumoniae 22#3038, resistance mechanism APH(3')-II, ANT(2"), 37°C, 18 hours
From the text: The antibacterial spectra so determined of the new compounds No. 1 to No. 13 (each in the form of the free base) of this invention are as shown in Table 1 below.

Bacillus subtilis PCI219 = assay: MIC, serial dilution on Mueller Hinton agar
[9] = tested on: Escherichia coli JR66/W677; assay: microbe, parasite or virus in culture; conditions: JR66/W677, 18 h
Providencia sp. Pv 16 = assay: MIC, serial dilution on Mueller Hinton agar
Escherichia coli K-12 = assay: MIC, serial dilution on Mueller Hinton agar; conditions: K12; Escherichia coli K-12; Mueller Hinton agar, 37°C, 18 hours; read-out: MIC.
Proteus rettgeri GN 311 = assay: MIC, serial dilution on Mueller Hinton agar; conditions: Providencia rettgeri, GN311; Proteus rettgeri GN 311; Mueller Hinton agar, 37°C, 18 hours; read-out: MIC.
Mycobacterium 607 = assay: MIC, serial dilution on Mueller Hinton agar
Escherichia coli JR225 = assay: microbe, parasite or virus in culture; conditions: for MIC: Escherichia coli, JR225, 18 h
[10] = Staphylococcus aureus, AP01, 18 h
[11] = Mueller Hinton agar, 37°C, 18 hours, read-out: MIC.
[12] = GN315, Pseudomonas aeruginosa GN 315, resistance mechanism AAC(6'), Mueller Hinton agar, 37°C, 18 hours, read-out: MIC.
[13] = Staphylococcus aureus Ap01, resistance mechanism ANT(4'), Mueller Hinton agar, 37°C, 18 hours, read-out: MIC.
[14] = Mycobacterium 607, Mueller Hinton agar, 37°C, incubated for 40 hours, read-out: MIC.
[15] = Pseudomonas aeruginosa A3, Mueller Hinton agar, 37°C, 18 hours, read-out: MIC.
[16] = Corynebacterium bovis 1810, Mueller Hinton agar, 37°C, 18 hours, read-out: MIC.
[17] = Staphylococcus aureus 209P, Mueller Hinton agar, 37°C, 18 hours, read-out: MIC.
[18] = Bacillus subtilis PCI219, Mueller Hinton agar, 37°C, 18 hours, read-out: MIC.
[19] = SP.PV16, Providencia sp. Pv 16, resistance mechanism AAC(2'), Mueller Hinton agar, 37°C, 18 hours, read-out: MIC.
[20] = Pseudomonas aeruginosa, GN315, 18 h

Row | Structure (SMILES) | MIC (Escherichia coli K-12 R5) [mg/L] | MIC (Serratia marcescens; [11]) [mg/L] | MIC [4] [mg/L] | MIC [5] [mg/L] | MIC [6, 12] [mg/L] | MIC [8] [mg/L] | MIC [9] [mg/L] | MIC [1, 13] [mg/L] | MIC (Escherichia coli K-12) [mg/L] | MIC (Proteus rettgeri GN 311) [mg/L] | MIC (Mycobacterium 607; [14]) [mg/L] | MIC [2, 15] [mg/L] | MIC [3, 16] [mg/L] | MIC (Escherichia coli JR225) [mg/L] | MIC [7, 17] [mg/L] | MIC (Bacillus subtilis PCI219; [18]) [mg/L] | MIC (Providencia sp. Pv 16; [19]) [mg/L] | MIC (Serratia marcescens; 18 h) [mg/L] | also measured
1 | NCC[C@H](O)C(=O)N[C@@H]1C[C@H](N)[C@@H](O[C@H]2O[C@H](CN)[C@@H](O)[C@H](O)[C@H]2O)[C@H](O)[C@H]1O[C@H]1O[C@H](CO)[C@@H](O)[C@H](N)[C@H]1O [AMK, 1-N-(4-amino-2-(S)-hydroxybutyryl)-kanamycin A, reference compound] | 25 (≈ 42.7 µM) | 6.25 (≈ 10.7 µM) | 1.56 (≈ 2.66 µM) | 1.56 (≈ 2.66 µM) | 25 (≈ 42.7 µM) | 3.12 (≈ 5.33 µM) | 3.12 (≈ 5.33 µM) |  |  |  |  |  |  |  |  |  |  |  | MIC [1, 10]: 3.12 mg/L (≈ 5.33 µM); MIC ([2]; Pseudomonas aeruginosa, A3, 18 h): 1.56 mg/L (≈ 2.66 µM); MIC ([3]; Corynebacterium bovis, 1810, 18 h): 1.56 mg/L (≈ 2.66 µM); MIC ([7]; Staphylococcus aureus, 209P, 18 h): 1.56 mg/L (≈ 2.66 µM); MIC (Bacillus subtilis PCI219; Bacillus subtilis, PCI219, 18 h): 1.56 mg/L (≈ 2.66 µM)
2 | NC[C@H]1O[C@H](O[C@H]2[C@H](F)[C@@H](O[C@H]3O[C@H](CO)[C@@H](O)[C@H](N)[C@H]3O)[C@H](N)C[C@@H]2N)[C@H](N)[C@@H](O)[C@@H]1O [Compound No. 1, 5-Deoxy-5-fluorokanamycin B] | 100 (≈ 206 µM) | 6.25 (≈ 12.9 µM) | 3.12 (≈ 6.43 µM) | > 100 | 100 (≈ 206 µM) | > 100 | > 100 | 25 (≈ 51.5 µM) | 0.78 (≈ 1.61 µM) | < 0.2 | 1.56 (≈ 3.21 µM) | 1.56 (≈ 3.21 µM) | 0.78 (≈ 1.61 µM) | 0.78 (≈ 1.61 µM) | 0.39 (≈ 0.803 µM) | 0.39 (≈ 0.803 µM) |  |  | MIC (Providencia sp. Pv 16; Providencia, SP.PV16, 18 h): 3.12 mg/L (≈ 6.43 µM); antibacterial activity (Providencia sp. Pv 16; Providensia Pv 16, resistant strain having the enzyme for acetylating the 2'-amino group of kanamycin B): significantly active; antibacterial activity ([4]; Escherichia coli K-12 LA290 R55, resistant strain having the enzyme for adenylating the 2"-hydroxyl group of kanamycin B): significantly active; antibacterial activity (Escherichia coli JR225; Escherichia coli JR 225, resistant strain having the enzyme for acetylating the 3-hydroxyl group of kanamycin B): significantly active
3 | NC[C@@H]1C[C@H](O)[C@@H](N)[C@@H](O[C@H]2[C@H](F)[C@@H](O[C@H]3O[C@H](CO)[C@@H](O)[C@H](N)[C@H]3O)[C@H](N)C[C@@H]2N)O1 [Compound No. 3, 5,4'-Dideoxy-5-fluorokanamycin B] | 100 (≈ 213 µM) | 12.5 (≈ 26.6 µM) | 6.25 (≈ 13.3 µM) | > 100 | 100 (≈ 213 µM) | > 100 | > 100 | 0.78 (≈ 1.66 µM) | 1.56 (≈ 3.32 µM) | 0.2 (≈ 0.426 µM) | 3.12 (≈ 6.65 µM) | 3.12 (≈ 6.65 µM) | 0.78 (≈ 1.66 µM) | 6.25 (≈ 13.3 µM) | 0.39 (≈ 0.831 µM) | 0.39 (≈ 0.831 µM) |  |  | MIC (Providencia sp. Pv 16; Providencia, SP.PV16, 18 h): 6.25 mg/L (≈ 13.3 µM)
4 | NC[C@H](O)C(=O)N[C@@H]1C[C@H](N)[C@@H](O[C@H]2O[C@H](CN)[C@@H](O)[C@H](O)[C@H]2N)[C@H](F)[C@H]1O[C@H]1O[C@H](CO)[C@@H](O)[C@H](N)[C@H]1O [Compound No. 5, 1-N-(3-Amino-2-(S)-hydroxypropionyl)-5-deoxy-5-fluorokanamycin B] | 12.5 (≈ 21.8 µM) |  | 1.56 (≈ 2.72 µM) | 0.78 (≈ 1.36 µM) | 6.25 (≈ 10.9 µM) | 3.12 (≈ 5.45 µM) | 1.56 (≈ 2.72 µM) | 6.25 (≈ 10.9 µM) | < 0.2 | < 0.2 | 6.25 (≈ 10.9 µM) | 0.2 (≈ 0.349 µM) | < 0.2 | 0.2 (≈ 0.349 µM) | 0.39 (≈ 0.681 µM) | 0.78 (≈ 1.36 µM) | 0.78 (≈ 1.36 µM) | 1.56 (≈ 2.72 µM) | 
5 | NCC[C@H](O)C(=O)N[C@@H]1C[C@H](N)[C@@H](O[C@H]2O[C@H](CN)[C@@H](O)[C@H](O)[C@H]2N)[C@H](F)[C@H]1O[C@H]1O[C@H](CO)[C@@H](O)[C@H](N)[C@H]1O [Compound No. 6, 1-N-(4-Amino-2-(S)-hydroxybutyryl)-5-deoxy-5-fluorokanamycin B] | 12.5 (≈ 21.3 µM) | 1.56 (≈ 2.66 µM) | 0.78 (≈ 1.33 µM) | 0.78 (≈ 1.33 µM) | 6.25 (≈ 10.7 µM) | 3.12 (≈ 5.32 µM) | 0.78 (≈ 1.33 µM) | 6.25 (≈ 10.7 µM) | < 0.2 | < 0.2 |  | < 0.2 | < 0.2 | < 0.2 | 0.39 (≈ 0.665 µM) | 0.39 (≈ 0.665 µM) | 0.78 (≈ 1.33 µM) |  | MIC (Mycobacterium 607; Mycobacterium, 607, 40 h): 12.5 mg/L (≈ 21.3 µM)
6 | NCC(O)C(=O)N[C@@H]1C[C@H](N)[C@@H](O[C@H]2O[C@H](CN)[C@@H](O)C[C@H]2N)[C@H](F)[C@H]1O[C@H]1O[C@H](CO)[C@@H](O)[C@H](N)[C@H]1O (stereo partly drawn) [Compound No. 7, 1-N-(3-Amino-2-(RS)-hydroxypropionyl)-5,3'-dideoxy-5-fluorokanamycin B] | 6.25 (≈ 11.2 µM) |  | 0.78 (≈ 1.4 µM) | 0.78 (≈ 1.4 µM) |  | 3.12 (≈ 5.61 µM) | 1.56 (≈ 2.8 µM) |  | 0.2 (≈ 0.359 µM) | 0.78 (≈ 1.4 µM) | 0.78 (≈ 1.4 µM) | 0.39 (≈ 0.701 µM) | < 0.2 | 0.78 (≈ 1.4 µM) | 0.39 (≈ 0.701 µM) | 0.2 (≈ 0.359 µM) | 0.78 (≈ 1.4 µM) | 3.12 (≈ 5.61 µM) | MIC [1, 10]: 1.56 mg/L (≈ 2.8 µM); MIC [6, 20]: 6.25 mg/L (≈ 11.2 µM)
7 | NC[C@H](O)C(=O)N[C@@H]1C[C@H](N)[C@@H](O[C@H]2O[C@H](CN)[C@@H](O)C[C@H]2N)[C@H](F)[C@H]1O[C@H]1O[C@H](CO)[C@@H](O)[C@H](N)[C@H]1O [Compound No. 8, 1-N-(3-Amino-2-(S)-hydroxypropionyl)-5,3'-dideoxy-5-fluorokanamycin B] | 6.25 (≈ 11.2 µM) |  | 1.56 (≈ 2.8 µM) | 0.78 (≈ 1.4 µM) |  | 1.56 (≈ 2.8 µM) | 0.78 (≈ 1.4 µM) | 0.78 (≈ 1.4 µM) | 0.2 (≈ 0.359 µM) | 0.39 (≈ 0.701 µM) | 0.78 (≈ 1.4 µM) | 0.39 (≈ 0.701 µM) | < 0.2 | 0.78 (≈ 1.4 µM) | 0.39 (≈ 0.701 µM) | 0.2 (≈ 0.359 µM) | 0.78 (≈ 1.4 µM) | 3.12 (≈ 5.61 µM) | MIC [6, 20]: 6.25 mg/L (≈ 11.2 µM)
8 | NC[C@@H]1CC[C@@H](N)[C@@H](O[C@H]2[C@H](O)[C@@H](O[C@H]3O[C@H](CO)[C@@H](O)[C@H](N)[C@H]3O)[C@H](N)C[C@@H]2N)O1 [DKB, 3',4'-dideoxykanamycin B, reference compound] | 50 (≈ 111 µM) |  | 50 (≈ 111 µM) |  |  | 50 (≈ 111 µM) |  |  | 0.2 (≈ 0.443 µM) | 0.2 (≈ 0.443 µM) | 1.56 (≈ 3.45 µM) | 0.2 (≈ 0.443 µM) |  | 100 (≈ 221 µM) | 0.39 (≈ 0.864 µM) | 0.39 (≈ 0.864 µM) |  |  | 

Reference: EP0259014A2, “5-Deoxy-5-fluorokanamycin B derivatives and processes for the production thereof” (ZAIDAN HOJIN BISEIBUTSU KAGAKU KENKYU KAI, priority 1986, dated 1988)
